Active and inactive are the calls of the source.
Experiments:
[1] = target: T1, Short transient receptor potential channel 4 (Mus musculus, UniProt Q9QUQ5); experiment: block of DAMGO-driven TRPC4 calcium entry – cell-based, HEK293 TRPC4/mu-opioid, Fluo-4 calcium, dose response (AID 434942); format: functional;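 note: potency of inhibitors blocking the TRPC4 calcium response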
T1 sequence (Q9QUQ5 whole entry): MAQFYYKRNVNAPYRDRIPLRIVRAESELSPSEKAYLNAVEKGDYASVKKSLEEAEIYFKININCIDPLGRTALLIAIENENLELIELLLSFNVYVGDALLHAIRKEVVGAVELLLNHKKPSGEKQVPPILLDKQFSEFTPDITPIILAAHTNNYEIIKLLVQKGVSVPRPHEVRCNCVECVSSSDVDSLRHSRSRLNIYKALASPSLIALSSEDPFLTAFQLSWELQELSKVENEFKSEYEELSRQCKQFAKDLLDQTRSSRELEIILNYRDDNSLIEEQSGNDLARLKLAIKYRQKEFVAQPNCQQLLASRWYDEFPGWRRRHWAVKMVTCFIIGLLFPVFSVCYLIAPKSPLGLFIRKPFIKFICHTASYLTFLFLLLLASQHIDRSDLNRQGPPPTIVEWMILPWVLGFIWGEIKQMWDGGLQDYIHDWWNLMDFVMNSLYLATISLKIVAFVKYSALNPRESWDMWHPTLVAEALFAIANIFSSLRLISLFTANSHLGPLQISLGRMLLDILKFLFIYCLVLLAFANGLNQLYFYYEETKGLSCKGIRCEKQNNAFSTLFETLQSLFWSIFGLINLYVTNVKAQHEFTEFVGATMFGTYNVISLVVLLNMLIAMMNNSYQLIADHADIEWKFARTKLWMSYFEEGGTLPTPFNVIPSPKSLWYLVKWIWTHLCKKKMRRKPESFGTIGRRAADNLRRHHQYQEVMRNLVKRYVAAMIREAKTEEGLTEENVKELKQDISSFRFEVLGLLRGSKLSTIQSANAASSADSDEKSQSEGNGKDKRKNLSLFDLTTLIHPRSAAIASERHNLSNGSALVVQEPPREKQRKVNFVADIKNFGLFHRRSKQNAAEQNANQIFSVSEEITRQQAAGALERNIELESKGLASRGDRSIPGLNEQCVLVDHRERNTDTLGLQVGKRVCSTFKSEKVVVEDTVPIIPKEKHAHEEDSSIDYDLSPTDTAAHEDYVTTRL

[2] = target: T1, Short transient receptor potential channel 4; experiment: calcium entry via TRPC4 opening agents – cell-based, HEK293 TRPC4/mu-opioid, Fluo-4 calcium, dose response (AID 434937); format: functional
[3] = target: T2, DNA repair protein RAD52 homolog (Homo sapiens, UniProt P43351); format: functional, biochemical
T2 sequence (P43351 whole entry): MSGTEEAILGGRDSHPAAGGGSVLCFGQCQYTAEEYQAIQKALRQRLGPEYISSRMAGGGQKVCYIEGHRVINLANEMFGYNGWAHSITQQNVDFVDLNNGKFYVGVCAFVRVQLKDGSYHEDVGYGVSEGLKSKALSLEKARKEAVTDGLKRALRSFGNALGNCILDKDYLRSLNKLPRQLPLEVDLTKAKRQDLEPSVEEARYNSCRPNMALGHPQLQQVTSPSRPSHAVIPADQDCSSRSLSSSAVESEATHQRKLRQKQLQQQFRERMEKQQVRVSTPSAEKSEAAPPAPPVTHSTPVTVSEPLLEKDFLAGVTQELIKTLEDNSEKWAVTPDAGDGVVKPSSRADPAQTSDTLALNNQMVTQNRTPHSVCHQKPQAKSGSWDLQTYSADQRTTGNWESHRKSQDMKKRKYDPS

[4] = target: T3, Replicative DNA helicase DnaB (Mycobacterium tuberculosis, UniProt P9WMR3); experiment: DnaB intein splicing inhibitors, dose response, biochemical, cell-free fluorescence (AID 449749); format: functional
T3 sequence (P9WMR3 whole entry): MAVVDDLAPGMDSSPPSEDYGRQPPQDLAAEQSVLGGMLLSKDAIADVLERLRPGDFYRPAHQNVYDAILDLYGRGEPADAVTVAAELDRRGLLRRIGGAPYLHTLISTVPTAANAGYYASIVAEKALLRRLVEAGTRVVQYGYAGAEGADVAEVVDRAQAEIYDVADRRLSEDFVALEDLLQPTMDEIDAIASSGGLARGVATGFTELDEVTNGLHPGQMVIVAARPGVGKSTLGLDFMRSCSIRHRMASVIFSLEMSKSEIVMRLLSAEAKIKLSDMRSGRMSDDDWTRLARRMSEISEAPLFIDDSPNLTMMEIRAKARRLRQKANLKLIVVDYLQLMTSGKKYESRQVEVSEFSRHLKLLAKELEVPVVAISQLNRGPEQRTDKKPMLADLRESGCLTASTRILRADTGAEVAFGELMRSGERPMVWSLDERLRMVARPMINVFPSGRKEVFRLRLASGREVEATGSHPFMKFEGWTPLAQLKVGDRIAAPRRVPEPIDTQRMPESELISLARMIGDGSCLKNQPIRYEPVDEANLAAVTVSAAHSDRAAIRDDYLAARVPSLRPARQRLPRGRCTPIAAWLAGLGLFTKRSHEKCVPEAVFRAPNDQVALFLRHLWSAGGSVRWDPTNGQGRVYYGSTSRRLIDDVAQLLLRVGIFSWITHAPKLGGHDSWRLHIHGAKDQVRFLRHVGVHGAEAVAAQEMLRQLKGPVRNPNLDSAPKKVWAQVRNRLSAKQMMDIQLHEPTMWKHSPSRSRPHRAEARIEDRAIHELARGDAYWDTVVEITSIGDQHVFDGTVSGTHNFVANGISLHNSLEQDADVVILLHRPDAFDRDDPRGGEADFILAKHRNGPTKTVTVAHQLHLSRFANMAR

Protein RecA = target: T4, Protein RecA (Mycobacterium tuberculosis, UniProt P9WHJ3); experiment: Fluorescence Cell-Free Homogeneous Dose Retest to Identify Inhibitors of RecA-Intein Splicing Activity. [Related pubchem assays (depositor defined):AID2097, AID2223, AID489010, AID492950]; format: functional
T4 sequence (P9WHJ3 whole entry): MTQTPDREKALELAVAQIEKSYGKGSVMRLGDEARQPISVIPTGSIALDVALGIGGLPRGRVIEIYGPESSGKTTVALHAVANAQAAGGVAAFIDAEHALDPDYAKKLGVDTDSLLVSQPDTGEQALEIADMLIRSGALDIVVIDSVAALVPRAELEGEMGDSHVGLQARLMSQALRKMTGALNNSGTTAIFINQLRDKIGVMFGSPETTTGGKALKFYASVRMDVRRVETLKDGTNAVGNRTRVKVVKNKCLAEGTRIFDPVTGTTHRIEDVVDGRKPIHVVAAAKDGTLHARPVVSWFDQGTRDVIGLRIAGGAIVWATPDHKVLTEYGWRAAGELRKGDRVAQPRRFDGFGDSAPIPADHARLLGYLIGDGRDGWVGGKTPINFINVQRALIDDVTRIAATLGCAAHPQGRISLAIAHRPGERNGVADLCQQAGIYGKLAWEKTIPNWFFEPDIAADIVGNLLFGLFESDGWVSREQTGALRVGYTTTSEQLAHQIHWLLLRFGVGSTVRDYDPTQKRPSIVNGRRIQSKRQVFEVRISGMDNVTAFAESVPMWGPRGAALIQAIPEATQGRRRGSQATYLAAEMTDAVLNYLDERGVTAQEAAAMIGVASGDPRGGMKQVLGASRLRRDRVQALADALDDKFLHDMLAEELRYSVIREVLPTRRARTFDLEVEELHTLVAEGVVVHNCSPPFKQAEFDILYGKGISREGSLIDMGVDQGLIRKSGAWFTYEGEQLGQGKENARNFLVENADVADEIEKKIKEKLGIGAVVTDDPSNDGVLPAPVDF

[5] = A Cell Based Secondary Assay To Explore Cytotoxicity of Compounds that Sensitize Mycobacterium Tuberculosis to Beta-Lactam Antibiotics.; format: functional
Aminopeptidase N = target: T5, Aminopeptidase N (Plasmodium falciparum FcB1/Columbia, UniProt O96935); experiment: malaria alanyl aminopeptidase activity blockers – biochemical, fluorogenic H-Leu-NHMec substrate, 1536-well (AID 1445); design: species or system Plasmodium falciparum 3D7, 3D7
T5 sequence (O96935 whole entry): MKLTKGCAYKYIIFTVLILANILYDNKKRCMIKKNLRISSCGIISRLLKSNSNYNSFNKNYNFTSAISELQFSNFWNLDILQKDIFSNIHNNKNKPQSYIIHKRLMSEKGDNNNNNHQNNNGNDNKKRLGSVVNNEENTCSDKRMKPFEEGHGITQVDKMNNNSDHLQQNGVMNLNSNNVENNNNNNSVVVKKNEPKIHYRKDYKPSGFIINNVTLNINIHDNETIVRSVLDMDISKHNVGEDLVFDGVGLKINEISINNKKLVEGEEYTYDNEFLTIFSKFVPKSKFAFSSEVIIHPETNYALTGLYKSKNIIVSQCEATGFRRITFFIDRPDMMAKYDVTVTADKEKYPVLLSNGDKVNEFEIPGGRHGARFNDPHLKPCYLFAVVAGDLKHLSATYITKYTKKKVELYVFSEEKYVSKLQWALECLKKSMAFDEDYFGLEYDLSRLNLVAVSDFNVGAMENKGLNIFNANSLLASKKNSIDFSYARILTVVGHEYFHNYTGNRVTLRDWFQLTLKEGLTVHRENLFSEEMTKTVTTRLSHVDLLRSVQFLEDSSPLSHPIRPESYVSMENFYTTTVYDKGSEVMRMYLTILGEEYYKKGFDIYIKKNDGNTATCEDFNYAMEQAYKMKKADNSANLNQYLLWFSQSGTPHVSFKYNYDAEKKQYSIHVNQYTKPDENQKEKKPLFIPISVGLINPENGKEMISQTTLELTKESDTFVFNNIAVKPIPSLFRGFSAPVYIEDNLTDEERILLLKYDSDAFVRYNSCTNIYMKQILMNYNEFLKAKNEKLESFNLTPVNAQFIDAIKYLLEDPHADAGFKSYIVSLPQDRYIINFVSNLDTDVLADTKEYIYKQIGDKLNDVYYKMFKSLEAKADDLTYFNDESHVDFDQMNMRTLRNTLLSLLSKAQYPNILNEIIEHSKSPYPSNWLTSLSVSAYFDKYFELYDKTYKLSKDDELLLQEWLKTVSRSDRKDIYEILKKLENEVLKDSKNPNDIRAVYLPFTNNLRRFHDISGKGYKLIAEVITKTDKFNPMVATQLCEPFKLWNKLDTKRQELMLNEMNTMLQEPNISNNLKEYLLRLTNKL

Protein skinhead-1 = target: T6, Protein skinhead-1 (Caenorhabditis elegans, UniProt P34707); format: functional
T6 sequence (P34707 whole entry): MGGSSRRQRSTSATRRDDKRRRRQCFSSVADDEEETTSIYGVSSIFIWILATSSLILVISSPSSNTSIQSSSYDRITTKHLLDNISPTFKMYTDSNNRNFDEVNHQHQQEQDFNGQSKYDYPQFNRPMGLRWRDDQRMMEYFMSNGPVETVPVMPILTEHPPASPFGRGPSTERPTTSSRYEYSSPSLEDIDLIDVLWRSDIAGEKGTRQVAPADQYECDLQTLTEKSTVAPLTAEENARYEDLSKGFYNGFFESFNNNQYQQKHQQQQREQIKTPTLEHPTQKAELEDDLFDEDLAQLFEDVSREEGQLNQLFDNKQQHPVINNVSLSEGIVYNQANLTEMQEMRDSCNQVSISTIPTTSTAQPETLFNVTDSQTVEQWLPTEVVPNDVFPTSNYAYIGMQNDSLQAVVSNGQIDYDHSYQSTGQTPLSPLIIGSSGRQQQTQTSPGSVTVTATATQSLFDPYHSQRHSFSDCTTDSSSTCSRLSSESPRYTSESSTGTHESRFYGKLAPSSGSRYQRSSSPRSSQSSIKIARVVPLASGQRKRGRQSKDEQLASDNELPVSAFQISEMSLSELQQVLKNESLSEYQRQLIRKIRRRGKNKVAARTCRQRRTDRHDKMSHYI

[6] = NIH-3T3 fibroblast cytotoxicity, dose response, cytotoxicity control, cell-based, fluorescence, Alamar Blue, secondary assay (AID 2327); format: functional;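 note: NIH-3T3 mouse fibroblasts cultured with fluconazole at 8 µg/mL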
Streptococcus = experiment: GAS UMAA2166 growth inhibition – luminescence, BacTiterGlo, counter-screen for streptokinase expression inhibitor project, dose response (AID 1915); format: functional, organism-based;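 note: potency for reduction of bacterial viability or growth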
cells [7] = format: functional, cell-based
cells [8] = format: functional, cell-based; remark: listed apart in the source
[9] = test system: Streptococcus sp. 'group A'; experiment: Streptococcus pyogenes SK(-)GAS viability under kanamycin – luminescence, BacTiterGlo, confirmation, counter-screen for streptokinase expression inhibitor project, dose response (AID 1900); format: functional, organism-based
[10] = viability of uninfected HEp-2 cells – cell-based, HTS, cytotoxicity control for RSV inhibitor project, dose response (AID 2410); format: functional; details: human respiratory syncytial virus
[11] = fluconazole-exposed Candida albicans growth modulators – fluorescence, retest, confirmation (AID 2467); format: functional, cell-based

SMILES: CCC(C)NC(C(=O)Nc1ccc(Cl)c([N+](=O)[O-])c1)c1ccccc1 (centres undefined)
- EC50 [1]: 7.5 µM (active)

SMILES: Cc1ccc(O)c(Sc2cc(C)ccc2O)c1
- EC50 [1]: 3.76 µM (active)

SMILES: OC(CNC1CCCc2ccccc21)COc1ccc2ccccc2c1 (centres undefined)
- EC50 [2]: 5.96 µM (active)

SMILES: Cc1ccc(-c2csc(N(CCCN(C)C)C(=O)c3ccco3)n2)cc1
- AC50 [3]: 11.7 µM (active)
- EC50 [1]: 2.11 µM (active)

SMILES: Brc1ccc(CNc2ccc3ncccc3c2)cc1
- AC50 [4]: > 380 µM (inactive)
- EC50 (Protein RecA): > 380 µM (inactive)
- CC50 [5]: > 40 µM (active)

SMILES: O=C(O)c1ccc(NC(S)=NC(NC(=O)c2ccco2)C(Cl)(Cl)Cl)cc1 (centres undefined)
- IC50 (Aminopeptidase N): 60.5 µM (active)

SMILES: Cc1cc(=O)oc2cc3c(cc12)OCCN3
- IC50 (Aminopeptidase N): 32.8 µM (active)

SMILES: O=C(NC1CCN(Cc2ccccc2)CC1)C12CC3CC(CC(C3)C1)C2
- EC50 [2]: 1.5 µM (active)

SMILES: C[C@H](NC(=O)c1[nH]cnc1C(=O)Nc1ccc(Cl)cc1)C(=O)OC(C)(C)C
- CC50 [5]: 16.7 µM (active)
- IC50 (Protein skinhead-1): > 100 µM (inactive)

SMILES: Cc1c(O)c(CN2CCCC2)cc2c3c(c(=O)oc12)CCC3
- IC50 (Aminopeptidase N): 42.6 µM (active)

SMILES: COC(=O)Cc1c(C)c2ccc(O)c(CN3CCCC(C)C3)c2oc1=O (centres undefined)
- IC50 (Aminopeptidase N): 30 µM (active)

SMILES: O=Cc1cc(N=Nc2ccccc2Cl)ccc1O
- EC50 [6]: > 160 µM (inactive)
- EC50 (Streptococcus): 6.24 µM (active)
- EC50 (cells [7]): > 350 µM (not active)
- EC50 (cells [8]): 198 µM (active)
- EC50 [9]: 5.05 µM (active)
- CC50 [10]: 7.07 µM (active)
- EC50 [11]: > 38 µM (not active)
- EC50 [1]: 15 µM (active)

SMILES: COc1ccc(-n2nc(C(=O)NCC(=O)NCCCN3CC(C)CC(C)C3)c3ccccc3c2=O)cc1Cl (centres undefined)
- EC50 [2]: 1.5 µM (active)
